The experiment concerns the target Bruton's Tyrosine Kinase (BTK), inactivated state (Homo sapiens (Human), UniProt Q06187). The experiment can be described thus: Bruton's Tyrosine Kinase (BTK) Inhibition TR-FRET (Time Resolved FRET) competition assay. Format: binding. The conditions noted are these: TR-FRET competition with Kinase Tracer 178, BTK-Eu complex, 18-24 h at 14° C. The procedure: Bruton's Tyrosine Kinase (BTK) Inhibition TR-FRET (Time Resolved FRET) Assay
This BTK competition assay measures compound potency (IC50) for the inactivated state of Bruton's Tyrosine Kinase using FRET (Förster/Fluorescence Resonance Energy Transfer) technology. The BTK-Eu complex was incubated on ice one hour prior to use at a starting concentration of 50 nM BTK-Bioease™: 10 nM Eu-streptavidin (Perkin-Elmer Catalog#AD0062). The assay buffer consisted of 20 mM HEPES (pH 7.15), 0.1 mM DTT, 10 mM MgCl2, 0.5 mg/ml BSA with 3% Kinase Stabilizer (Fremont Biosolutions, Catalog #STB-K02). After 1 h, the reaction mixture from above was diluted 10 fold in assay buffer to make 5 nM BTK: 1 nM Eu-Streptavidin complex (donor fluorophore). 18 μl of a mixture of 0.11 nM BTK-Eu and 0.11 nM Kinase Tracer 178 (Invitrogen, Catalog #PV5593,) with BTK-Eu alone as no negative control, was then dispensed into 384-well flat bottom plates (Greiner, 784076). Compounds to be tested in assay were prepared as 10× concentrations and serial dilution in half-log increments was performed in DMSO so as to generate 10 point curves. To initiate the FRET reaction, compounds prepared as 10× stock in DMSO was added to the plates and the plates were incubated 18-24 h at 14° C.
After the incubation the plates were read on a BMG Pherastar Fluorescent plate reader (or equivalent) and used to measure the emission energy from the europium donor fluorophore (620 nm emission) and the FRET (665 nm emission). The negative control well values were averaged to obtain the mean minimum. The positive “no inhibitor” control wells were averaged to obtain the mean maximum. Percent of maximal FRET was calculated using following equation: % max FRET=100×[(FSR cmpd−FSR mean min)/(FSR mean max−FSR mean min)]
where FSR=FRET Signal ratio. % Max FRET curves were plotted in Activity Base (Excel) and the IC50(%), hill slope, z′ and % CV were determined. The mean IC50 and standard deviation will be derived from duplicate curves (singlet inhibition curves from two independent dilutions) using Microsoft Excel.
Representative compound data for this assay are listed below in Table II.
On the technique in general: TR-FRET usually uses a lanthanide donor and a delayed reading to cut background.

Each structure is given as a SMILES string. Structures can show the parent of a compound that is named as a salt.

For orientation: IC50 means the concentration that inhibits the measured activity by half. Low readings indicate greater potency, high ones weaker potency.

Sequence of Bruton's Tyrosine Kinase (BTK), inactivated state (Q06187 whole entry): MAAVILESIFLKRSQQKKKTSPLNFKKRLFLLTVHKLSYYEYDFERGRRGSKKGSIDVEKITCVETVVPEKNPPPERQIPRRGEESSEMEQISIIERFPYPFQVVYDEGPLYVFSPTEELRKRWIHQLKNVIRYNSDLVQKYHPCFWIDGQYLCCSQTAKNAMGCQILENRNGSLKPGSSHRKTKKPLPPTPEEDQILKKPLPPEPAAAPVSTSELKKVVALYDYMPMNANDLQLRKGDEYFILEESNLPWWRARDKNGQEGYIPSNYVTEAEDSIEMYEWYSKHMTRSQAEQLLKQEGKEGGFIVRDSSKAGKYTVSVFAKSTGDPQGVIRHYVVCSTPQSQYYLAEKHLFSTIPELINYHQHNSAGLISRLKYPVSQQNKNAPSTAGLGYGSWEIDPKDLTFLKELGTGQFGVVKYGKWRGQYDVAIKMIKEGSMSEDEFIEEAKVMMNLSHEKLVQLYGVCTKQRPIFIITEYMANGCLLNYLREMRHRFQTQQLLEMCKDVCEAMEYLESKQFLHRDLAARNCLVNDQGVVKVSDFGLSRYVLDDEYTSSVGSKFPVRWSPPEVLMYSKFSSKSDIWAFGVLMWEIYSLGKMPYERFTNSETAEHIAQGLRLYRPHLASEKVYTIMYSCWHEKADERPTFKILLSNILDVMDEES

Compound `CN(C)CCNC(=O)c1ccc2[nH]c(C(=O)c3cnn(-c4ccc(Oc5ccccc5C(=O)N(C)C)cc4Cl)c3N)cc2c1` [Example I-49, 2-{5-Amino-1-[2-chloro-4-(2-dimethylcarbamoyl-phenoxy)-phenyl]-1H-pyrazole-4-carbonyl}-1H-indole-5-carboxylic acid (2-dimethylamino-ethyl)-amide] showed an IC50 of 1.4 nM.

Compound `CN(C)C(=O)c1ccccc1Oc1ccc(-n2ncc(C(=O)c3cc4cc(C(=O)N5CCC(N(C)C)C5)ccc4[nH]3)c2N)c(Cl)c1` (stereo not shown) [Example I-50, 2-(4-{5-Amino-4-[5-(3-dimethylamino-pyrrolidine-1-carbonyl)-1H-indole-2-carbonyl]-pyrazol-1yl}-3-chloro-phenoxy)-N,N-dimethyl-benzamide] came in with an IC50 of 2.5 nM.

The compound `CN(C)C(=O)c1ccccc1Oc1ccc(-n2ncc(C(=O)c3cc4cc(C(=O)N5CCNCC5)ccc4[nH]3)c2N)c(Cl)c1` [Example I-51, 2-(4-{5-Amino-4-[5-(piperazine-1-carbonyl)-1H-indole-2-carbonyl]-pyrazol-1-yl}-3-chloro-phenoxy)-N,N-dimethyl-benzamide acetic acid salt] had a half-maximal inhibitory concentration (IC50) of 1.1 nM.

`CN(C)C(=O)c1ccccc1Oc1ccc(-n2ncc(C(=O)c3cc4cc(C(=O)N5CCC(N(C)C(=O)OC(C)(C)C)C5)ccc4[nH]3)c2N)c(Cl)c1` (stereo not shown) [Example I-52, [1-(2-{5-Amino-1-[2-chloro-4-(2-dimethylcarbamoyl-phenoxy)-phenyl]-1Hpyrazole-4-carbonyl}-1H-indole-5-carbonyl)-pyrrolidin-3-yl]-methyl-carbamic acid tert-butyl ester]: the IC50 worked out at 17 nM.

With `CNC1CCN(C(=O)c2ccc3[nH]c(C(=O)c4cnn(-c5ccc(Oc6ccccc6C(=O)N(C)C)cc5Cl)c4N)cc3c2)C1` (stereo not shown) [Example I-53, acetic acid salt], the IC50 stood at 1.7 nM.

For the compound `CN(C)C(=O)c1ccccc1Oc1ccc(-n2ncc(C(=O)c3cc4cc(C(=O)NCCN(C)C(=O)OC(C)(C)C)ccc4[nH]3)c2N)c(Cl)c1` [Example I-55, {2-[(2-{5-Amino-1-[2-chloro-4-(2-dimethylcarbamoyl-phenoxy)-phenyl]-1H-pyrazole-4-carbonyl}-1H-indole-5-carbonyl)-amino]-ethyl}-methyl-carbamic acid tert-butyl ester], the IC50 was determined as 5.1 nM.

For the compound `CNCCNC(=O)c1ccc2[nH]c(C(=O)c3cnn(-c4ccc(Oc5ccccc5C(=O)N(C)C)cc4Cl)c3N)cc2c1` [Example I-56, 2-{5-Amino-1-[2-chloro-4-(2-dimethylcarbamoyl-phenoxy)-phenyl]-1H-pyrazole-4-carbonyl}-1H-indole-5-carboxylic acid (2-methylamino-ethyl)-amideacetic acid salt], the IC50 amounted to 3.1 nM.

`CN(C)C(=O)c1ccccc1Oc1ccc(-n2ncc(C(=O)c3cc4cc(C(=O)N5CCOCC5)ccc4[nH]3)c2N)c(Cl)c1` [Example I-57, 2-(4-{5-Amino-4-[5-(morpholine-4-carbonyl)-1H-indole-2-carbonyl]-pyrazol-1-yl}-3-chloro-phenoxy)-N,N-dimethyl-benzamide]: the IC50 is 3.3 nM.

As for `CNC1CCN(C(=O)c2ccc3[nH]c(C(=O)c4cnn(-c5ccc(Oc6ccccc6C(=O)N(C)C)cc5Cl)c4N)cc3c2)CC1` [Example I-58, 2-(4-{5-Amino-4-[5-(4-methylamino-piperidine-1-carbonyl)-1H-indole-2-carbonyl]-pyrazol-1-yl}-3-chloro-phenoxy)-N,N-dimethyl-benzamide], the IC50 came out at 2.1 nM.

With `CN(C)C(=O)c1ccccc1Oc1ccc(-n2ncc(C(=O)c3cc4cc(C(=O)O)ccc4[nH]3)c2N)c(Cl)c1` [Example I-59, 2-{5-Amino-1-[2-chloro-4-(2-dimethylcarbamoyl-phenoxy)-phenyl]-1H-pyrazole-4-carbonyl}-1H-indole-5-carboxylic acid], the IC50 was 12 nM.

Source of the values: patent US9556150B2, “Inhibitors of bruton's tyrosine kinase” (Hoffmann-La Roche Inc., priority 2013, dated 2017).
